# Data taken from patent US12595267B2, “Preparation method for amide compound and application thereof in field of medicine” (Shanghai Synergy Pharmaceutical Sciences Co., Ltd., priority 2019, dated 2026).
# Read-outs that look alike come from different tables or passages of the source.
# Tests used:
# Karpas 422 cells = experiment: Calcein AM proliferation assay, Karpas 422 cells; format: cell-based, human; settings: read-out: Karpas422 proliferation IC50
# WSU-DLCL2 cells = experiment: Calcein AM proliferation assay, WSU-DLCL2 cells; format: cell-based, human; settings: read-out: WSU-DLCL2 proliferation IC50
# Procedure: (§1) By observing under a microscope, it was confirmed that the cells are in good condition. The cells were transferred to a 15 mL centrifuge tube, which was centrifuged at 1000 rpm for 5 minutes.
# Gradient dilutions of the compounds in DMSO were performed, and a compound plate with a final concentration of 500-fold was prepared. 1.2 μL of 500× compound was pipetted, transferred to 200 μL medium, and pipetted to mix well to obtain a 3× compound intermediate plate. 50 μL 3× compound is pipetted and added to the cell plate according to the set arrangement.
# The cells of the above concentration were inoculated in 96-well plates, 100 μL/well (the number of cells in each well is 10,000). The cell plate was placed in a carbon dioxide incubator for 4 days. The cell plate was taken out. After mixed uniformly, a certain volume of cell suspension was drawn, and stained with Calcein AM. The number of cells in each well was counted with Acumen. According to the number of detected cells, 10,000 cells were re-inoculated in 96-well plates. As above, the compound was added. After placed in a carbon dioxide incubator for 3 days (day 7). The cell plate was taken out again. After mixed uniformly, a certain volume of cell suspension was drawn, stained with Calcein AM. The number of cells in each well was counted with Acumen. The cells were cultured for another 4 days (day 11), and the cell plate was taken out for the third time. After mixed uniformly, a certain volume of cell suspension was drawn, and stained with Calcein AM. The number of cells in each well was counted with Acumen. According to the number of detected cells, 10,000 cells were re-inoculated in 96-well plates. As above, the compound was added. […] After Calcein AM staining, the number of the cells was counted to obtain the final count result. The data of day 14 was processed to obtain the corresponding half-inhibitory concentration (IC50).
# Using GraphPad Prism 5 software, a non-linear regression model was used to draw the S-type dose-survival rate curve and to calculate the IC50 value.
# wild-type EZH2 = wild-type EZH2 (Homo sapiens, UniProt Q15910); experiment: Radiometric assay of activity on wild-type PRC2 EZH2
# wild-type EZH2, sequence (Q15910 whole entry): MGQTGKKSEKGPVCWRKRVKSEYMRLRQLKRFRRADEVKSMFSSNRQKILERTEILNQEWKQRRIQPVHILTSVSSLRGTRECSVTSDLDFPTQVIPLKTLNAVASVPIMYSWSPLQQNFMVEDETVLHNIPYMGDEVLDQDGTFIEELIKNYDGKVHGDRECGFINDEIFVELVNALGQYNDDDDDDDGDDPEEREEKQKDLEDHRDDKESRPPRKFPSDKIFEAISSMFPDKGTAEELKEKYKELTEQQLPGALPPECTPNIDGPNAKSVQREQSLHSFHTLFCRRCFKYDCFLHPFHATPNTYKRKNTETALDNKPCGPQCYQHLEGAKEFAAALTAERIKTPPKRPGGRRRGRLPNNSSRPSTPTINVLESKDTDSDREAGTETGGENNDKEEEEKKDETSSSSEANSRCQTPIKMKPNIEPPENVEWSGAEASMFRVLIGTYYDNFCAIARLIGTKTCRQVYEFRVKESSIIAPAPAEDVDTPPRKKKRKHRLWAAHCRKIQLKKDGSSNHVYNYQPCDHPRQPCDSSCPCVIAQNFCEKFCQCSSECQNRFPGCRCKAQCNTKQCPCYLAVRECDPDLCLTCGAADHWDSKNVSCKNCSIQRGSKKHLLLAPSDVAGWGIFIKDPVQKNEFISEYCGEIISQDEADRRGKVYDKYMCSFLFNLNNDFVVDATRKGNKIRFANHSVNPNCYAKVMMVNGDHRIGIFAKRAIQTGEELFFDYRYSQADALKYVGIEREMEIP
# wild-type EZH2, sequence (O75530 whole entry partner): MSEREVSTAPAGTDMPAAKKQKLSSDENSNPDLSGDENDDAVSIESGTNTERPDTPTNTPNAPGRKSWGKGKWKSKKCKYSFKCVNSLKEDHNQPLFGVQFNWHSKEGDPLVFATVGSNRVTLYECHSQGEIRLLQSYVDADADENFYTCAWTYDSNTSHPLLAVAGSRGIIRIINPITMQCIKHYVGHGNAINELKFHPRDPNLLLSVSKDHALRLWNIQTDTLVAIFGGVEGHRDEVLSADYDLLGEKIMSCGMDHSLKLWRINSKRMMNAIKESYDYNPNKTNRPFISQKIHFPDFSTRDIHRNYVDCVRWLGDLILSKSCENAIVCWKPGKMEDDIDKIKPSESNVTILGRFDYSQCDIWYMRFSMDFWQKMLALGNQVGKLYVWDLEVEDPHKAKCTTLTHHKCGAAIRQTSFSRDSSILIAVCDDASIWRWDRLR
# wild-type EZH2, sequence (Q15022 whole entry partner): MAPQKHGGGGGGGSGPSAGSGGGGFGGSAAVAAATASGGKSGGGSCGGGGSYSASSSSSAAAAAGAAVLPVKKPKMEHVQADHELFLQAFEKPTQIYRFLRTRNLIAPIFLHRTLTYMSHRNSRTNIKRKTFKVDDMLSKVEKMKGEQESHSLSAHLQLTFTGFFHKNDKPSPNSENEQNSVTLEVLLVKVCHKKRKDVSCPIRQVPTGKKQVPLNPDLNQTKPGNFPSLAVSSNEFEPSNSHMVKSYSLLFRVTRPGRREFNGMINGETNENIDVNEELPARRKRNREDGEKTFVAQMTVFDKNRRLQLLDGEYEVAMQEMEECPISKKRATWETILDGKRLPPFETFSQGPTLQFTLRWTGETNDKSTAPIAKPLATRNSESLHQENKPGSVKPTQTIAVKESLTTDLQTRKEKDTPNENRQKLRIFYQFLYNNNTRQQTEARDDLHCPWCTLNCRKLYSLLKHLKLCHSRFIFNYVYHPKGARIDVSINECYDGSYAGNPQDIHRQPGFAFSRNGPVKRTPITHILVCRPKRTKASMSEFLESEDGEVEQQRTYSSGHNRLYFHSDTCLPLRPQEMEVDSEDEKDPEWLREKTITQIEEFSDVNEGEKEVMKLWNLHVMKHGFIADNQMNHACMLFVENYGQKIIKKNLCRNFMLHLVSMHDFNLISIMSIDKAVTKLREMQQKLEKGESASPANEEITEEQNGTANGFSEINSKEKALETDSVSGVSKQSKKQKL
# wild-type EZH2, sequence (Q09028 whole entry partner): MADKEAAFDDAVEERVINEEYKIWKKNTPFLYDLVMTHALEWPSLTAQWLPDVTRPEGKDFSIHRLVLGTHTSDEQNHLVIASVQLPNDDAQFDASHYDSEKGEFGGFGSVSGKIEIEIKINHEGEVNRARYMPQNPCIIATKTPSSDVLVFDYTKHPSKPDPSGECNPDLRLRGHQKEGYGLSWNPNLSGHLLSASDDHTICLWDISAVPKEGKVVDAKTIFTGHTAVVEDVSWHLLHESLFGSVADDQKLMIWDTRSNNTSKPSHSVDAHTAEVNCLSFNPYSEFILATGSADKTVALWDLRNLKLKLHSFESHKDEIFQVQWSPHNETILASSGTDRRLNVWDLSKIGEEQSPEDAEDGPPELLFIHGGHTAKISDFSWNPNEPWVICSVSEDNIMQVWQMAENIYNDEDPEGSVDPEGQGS
# Procedure: 10 microliters (μL) of the compound of the test example and wild-type EZH2 were added to each well. After being incubated at room temperature for 15 minutes, peptides and [3H]-labeled methyl donor S-adenosylmethionine (SAM) were added. After reacting at room temperature for 1 hour (h), cold SAM was added to terminate the reaction. 25 μl reaction solution was transferred to the scintillation plate. After incubating for 1 hour (h) at room temperature, the plate was washed three times with deionized water and 0.1% Tween 20. The value was read with a PerkinElmer liquid scintillation/luminescence counter, and the half inhibitory concentration (IC50) of the compound was calculated with the Prism 5 software (GraphPad Prism 5).
# [1] = tested on: WSU-DLCL2 cell mouse xenograft tumor model; experiment: Pharmacodynamic experiment in WSU-DLCL2 mouse xenograft tumor model; format: in vivo; settings: CB17/SCID mice
# Procedure: A certain amount of the compound was weighed, dissolved in 0.1% tween for vortex and ultrasound, and then 0.5% sodium carboxymethyl cellulose (CMC-Na) solution was added to prepare a uniform solution.
# as §1
# [2] = Pharmacokinetics experiment in rats; format: in vivo; settings: rat, plasma, male SD rats; for bioavailability: oral 20 mg/kg vs intravenous 4 mg/kg, read-out: Bioavailability (F %); for AUC: read-out: Area under the curve (AUC); for half-life: read-out: Half life (T1/2) (converted); for Cmax: read-out: Blood drug level (Cmax)
# Procedure: Male SD rats weighing 200-300 g and 8 weeks old were used as experimental animals. […] The pharmacokinetic behavior of the compound of the present invention in rats was studied, and the pharmacokinetic characteristics thereof were evaluated.
# A certain amount of the compound was weighed, dissolved in 0.10% tween for vortex and ultrasound, and then 0.5% sodium carboxymethyl cellulose (CMC-Na) solution was added to prepare a uniform solution.
# The above-mentioned compounds were applied intravenously and orally to rats at a dose of 4 mg/kg and a dose of 20 mg/kg, respectively. At 0.083 h, 0.25 h, 0.5 h, 1.0 h, 2.0 h, 4.0 h, 6.0 h, 8.0 h, 12.0 h, and 24.0 h after application, 0.2 mL of blood was collected from the orbit, and placed in an anticoagulant tube, which was centrifuged at 6000 rpm for 10 minutes at 4° C. The plasma was separated and stored at −80° C.
# Pfeiffer cells = experiment: Calcein AM proliferation assay, Pfeiffer cells; format: cell-based, human; settings: read-out: Pfeiffer proliferation IC50
# Mutant EZH2 (Y641F) = molecular target: T1, Mutant EZH2 (Y641F) (Homo sapiens, UniProt Q15910, Y641F); experiment: AlphaLISA assay on mutant PRC2 complex, EZH2 Y641F; format: biochemical
# T1 construct: purchased BPS 51004
# T1 sequence (Q15910 whole entry Y641F): as the sequence (Q15910 whole entry) above, with Y641F counted along it
# T1 sequence (O75530 whole entry partner): as the sequence (O75530 whole entry partner) above
# T1 sequence (Q15022 whole entry partner): as the sequence (Q15022 whole entry partner) above
# T1 sequence (Q09028 whole entry partner): as the sequence (Q09028 whole entry partner) above
# T1 sequence (Q6ZN18 whole entry partner): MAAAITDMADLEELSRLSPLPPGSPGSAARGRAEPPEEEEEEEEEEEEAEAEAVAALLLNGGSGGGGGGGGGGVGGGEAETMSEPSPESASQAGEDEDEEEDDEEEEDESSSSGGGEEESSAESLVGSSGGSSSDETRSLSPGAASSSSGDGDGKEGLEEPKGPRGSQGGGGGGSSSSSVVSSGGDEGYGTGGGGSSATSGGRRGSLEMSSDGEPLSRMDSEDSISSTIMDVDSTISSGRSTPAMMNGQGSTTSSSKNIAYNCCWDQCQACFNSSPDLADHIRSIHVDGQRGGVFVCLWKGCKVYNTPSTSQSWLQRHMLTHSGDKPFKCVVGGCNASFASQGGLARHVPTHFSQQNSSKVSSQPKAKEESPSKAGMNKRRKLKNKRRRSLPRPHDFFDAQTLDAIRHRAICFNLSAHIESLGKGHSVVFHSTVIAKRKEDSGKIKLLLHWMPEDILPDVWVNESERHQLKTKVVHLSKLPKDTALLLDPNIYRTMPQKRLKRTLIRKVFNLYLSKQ
# Procedure: Detection Method: AlphaLISA
# (§2) Finally, 15 μl detection solution mixture was added under low light, and incubated at room temperature for 60 minutes, and read the value.
# Mutant EZH2 (Y641N) = molecular target: T2, Mutant EZH2 (Y641N) (Homo sapiens, UniProt Q15910, Y641N); experiment: AlphaLISA assay on mutant PRC2 complex, EZH2 Y641N; format: biochemical
# T2 construct: purchased BPS 51004
# T2 sequence (Q15910 whole entry Y641N): as the sequence (Q15910 whole entry) above, with Y641N counted along it
# T2 sequence (O75530 whole entry partner): as the sequence (O75530 whole entry partner) above
# T2 sequence (Q15022 whole entry partner): as the sequence (Q15022 whole entry partner) above
# T2 sequence (Q09028 whole entry partner): as the sequence (Q09028 whole entry partner) above
# T2 sequence (Q6ZN18 whole entry partner): as the sequence (Q6ZN18 whole entry partner) above
# Procedure: Detection Method: AlphaLISA
# as §2
# Mutant EZH2 (A677G) = molecular target: T3, Mutant EZH2 (A677G) (Homo sapiens, UniProt Q15910, A677G); experiment: AlphaLISA assay on mutant PRC2 complex, EZH2 A677G; format: biochemical
# T3 construct: purchased BPS 51004
# T3 sequence (Q15910 whole entry A677G): as the sequence (Q15910 whole entry) above, with A677G counted along it
# T3 sequence (O75530 whole entry partner): as the sequence (O75530 whole entry partner) above
# T3 sequence (Q15022 whole entry partner): as the sequence (Q15022 whole entry partner) above
# T3 sequence (Q09028 whole entry partner): as the sequence (Q09028 whole entry partner) above
# T3 sequence (Q6ZN18 whole entry partner): as the sequence (Q6ZN18 whole entry partner) above
# Procedure: Detection Method: AlphaLISA
# as §2
# [3] = Homo sapiens, KARPAS-422, day 14 data, Calcein AM staining
# [4] = Homo sapiens, WSUDLCL2, day 14 data, Calcein AM staining
# [5] = 150 mg/kg gastric irrigation, 21 days
# [6] = Homo sapiens, Pfeiffer, day 14 data, Calcein AM staining
# [7] = day 14 data, Calcein AM staining
smiles,measurement,setting,value
"CCN(c1cc(N2Cc3cn(C)cc3C2)cc(C(=O)NCc2c(C)cc(C)[nH]c2=O)c1C)C1CCOCC1 [Compound 21, N-((4,6-dimethyl-2-oxo-1,2-dihydropyridin-3-yl)methyl)-3-(ethyl (tetrahydro-2H-pyran-4-yl)amino)-2-methyl-5-(5-methyl-3,5-dihydropyrrolo[3,4-c]pyrrole-2(1H)-yl)benzamide]",IC50,Karpas 422 cells; [3],8.15 nM
same,IC50,WSU-DLCL2 cells; [4],9.38 nM
same,IC50,wild-type EZH2,0.9 nM
same,tumor growth inhibition,[1]; [5],90%
same,bioavailability,[2],26.8%
same,AUC,[2]; intravenous dosing 4 mg/kg,932 ng·h/mL
same,half-life,[2]; intravenous dosing 4 mg/kg,1.72 h
same,AUC,[2]; oral dosing 20 mg/kg,1250 ng·h/mL
same,Cmax,[2]; oral dosing 20 mg/kg,426 ng/mL
same,IC50,Pfeiffer cells; [6],7.16 nM
"CCN(c1cc(-c2ccc3c(c2)CCN3C2CCOCC2)cc(C(=O)NCc2c(C)cc(C)[nH]c2=O)c1C)C1CCOCC1 [Compound 29, N-((4,6-dimethyl-2-oxo-1,2-dihydropyridin-3-yl)methyl)-3-(ethyl (tetrahydro-2H-pyran-4-yl)amino)-2-methyl-5-(1-(1-tetrahydro-2H-pyran-4-yl)indolin-5-yl)benzamide]",IC50,Karpas 422 cells; [3],1.99 nM
same,IC50,WSU-DLCL2 cells; [4],2.18 nM
same,tumor growth inhibition,[1]; [5],78%
same,IC50,Pfeiffer cells; [6],1.42 nM
"CCN(c1cc(-c2ccc3c(c2)CCC3N2CCOCC2)c(Cl)c(C(=O)NCc2c(C)cc(C)[nH]c2=O)c1C)C1CCOCC1 (stereo not drawn) [Compound 10, 2-chloro-N-((4,6-dimethyl-2-oxo-1,2-dihydropyridin-3-yl)methyl)-5-(ethyl(tetrahydro-2H-pyran-4-yl)amino)-6-methyl-3-(1-morpholino-2,3-dihydro-1H-inden-5-yl)benzamide]",IC50,Mutant EZH2 (Y641F),0.58 nM
same,IC50,Mutant EZH2 (Y641N),0.3 nM
same,IC50,Karpas 422 cells; [3],0.58 nM
same,IC50,WSU-DLCL2 cells; [4],1.17 nM
same,IC50,wild-type EZH2,0.63 nM
same,bioavailability,[2],30.6%
same,AUC,[2]; intravenous dosing 4 mg/kg,937 ng·h/mL
same,half-life,[2]; intravenous dosing 4 mg/kg,1.64 h
same,AUC,[2]; oral dosing 20 mg/kg,1440 ng·h/mL
same,Cmax,[2]; oral dosing 20 mg/kg,405 ng/mL
same,IC50,Pfeiffer cells; [6],0.38 nM
"CCN(c1cc(N2Cc3ccc(N4CCOCC4)cc3C2)cc(C(=O)NCc2c(C)cc(C)[nH]c2=O)c1C)C1CCOCC1 [Compound 18, N-((4,6-dimethyl-2-oxo-1,2-dihydropyridin-3-yl)methyl)-3-(ethyl (tetrahydro-2H-pyran-4-yl)amino)-2-methyl-5-(5-morpholinoisoindolin-2-yl) benzamide]",IC50,Mutant EZH2 (Y641F),0.71 nM
same,IC50,Mutant EZH2 (Y641N),0.5 nM
same,IC50,Karpas 422 cells; [3],2.34 nM
same,IC50,Mutant EZH2 (A677G),0.64 nM
same,IC50,WSU-DLCL2 cells; [4],2.89 nM
same,IC50,wild-type EZH2,0.8 nM
same,bioavailability,[2],34.3%
same,AUC,[2]; intravenous dosing 4 mg/kg,969 ng·h/mL
same,half-life,[2]; intravenous dosing 4 mg/kg,1.57 h
same,AUC,[2]; oral dosing 20 mg/kg,1660 ng·h/mL
same,Cmax,[2]; oral dosing 20 mg/kg,457 ng/mL
same,IC50,Pfeiffer cells; [6],1.86 nM
"CC[C@H](C)n1cc(C)c2c(C(=O)NCc3c(C)cc(C)[nH]c3=O)cc(-c3ccc(N4CCNCC4)nc3)cc21 [GSK126, reference compound]",IC50,Karpas 422 cells; [7],20.3 nM
same,IC50,WSU-DLCL2 cells; [7],34.1 nM
same,tumor growth inhibition,"[1]; 50 mg/kg abdominal, once a day for 21 days",61%
same,IC50,Pfeiffer cells; [7],12.2 nM
CCN(c1cc(-c2cc3c(cc2F)C(N2CCOCC2)CC3)cc(C(=O)NCc2c(C)cc(C)[nH]c2=O)c1C)C1CCOCC1 (stereo not drawn) [Compound 24],IC50,Karpas 422 cells; [3],4.47 nM
same,IC50,Mutant EZH2 (A677G),0.61 nM
same,IC50,WSU-DLCL2 cells; [4],5.28 nM
same,IC50,wild-type EZH2,0.87 nM
same,IC50,Pfeiffer cells; [6],2.96 nM
"CCN(c1cc(-c2ccc3c(c2)CCC3N2CCOCC2)c(Cl)c(C(=O)NCc2c(OC)cc(C)[nH]c2=O)c1C)C1CCOCC1 (stereo not drawn) [Compound 12, 2-chloro-5-(ethyl(tetrahydro-2H-pyran-4-yl)amino)-N-((4-methoxy-6-methyl-2-carbonyl-1,2-dihydropyridin-3-yl)methyl)-6-methyl-3-(1-morpholino-2,3-dihydro-1H-inden-5-yl)benzamide]",IC50,"Karpas 422 cells; Homo sapiens, KARPAS-422, […]",1.84 nM
same,IC50,"WSU-DLCL2 cells; Homo sapiens, WSUDLCL2, […]",2.36 nM
same,tumor growth inhibition,[1]; [5],85%
same,bioavailability,[2],27.4%
same,AUC,[2]; intravenous dosing 4 mg/kg,956 ng·h/mL
same,half-life,[2]; intravenous dosing 4 mg/kg,1.42 h
same,AUC,[2]; oral dosing 20 mg/kg,1310 ng·h/mL
same,Cmax,[2]; oral dosing 20 mg/kg,480 ng/mL
same,IC50,"Pfeiffer cells; Homo sapiens, Pfeiffer, […]",1.69 nM
"CCN(c1cc(N2CCc3ccccc3C2)cc(C(=O)NCc2c(C)cc(C)[nH]c2=O)c1C)C1CCOCC1 [Compound 16, 5-(3,4-dihydroisoquinoline-2(1H)-yl)-N-((4,6-dimethyl-2-oxo-1,2-dihydropyridin-3-yl)methyl)-3-(ethyl(tetrahydro-2H-pyran-4-yl)amino)-2-methylbenzamide]",IC50,Mutant EZH2 (Y641F),0.82 nM
same,IC50,Mutant EZH2 (Y641N),0.61 nM
same,IC50,Karpas 422 cells; [3],3.34 nM
same,IC50,Mutant EZH2 (A677G),0.74 nM
same,IC50,WSU-DLCL2 cells; [4],5.12 nM
same,IC50,wild-type EZH2,0.95 nM
same,bioavailability,[2],24.4%
same,AUC,[2]; intravenous dosing 4 mg/kg,975 ng·h/mL
same,half-life,[2]; intravenous dosing 4 mg/kg,1.87 h
same,AUC,[2]; oral dosing 20 mg/kg,1190 ng·h/mL
same,Cmax,[2]; oral dosing 20 mg/kg,433 ng/mL
same,IC50,Pfeiffer cells; [6],1.87 nM
"CCN(c1cc(N2Cc3ccccc3C2)cc(C(=O)NCc2c(C)cc(C)[nH]c2=O)c1C)C1CCOCC1 [Compound 15, N-4,6-((dimethyl-2-oxo-1,2-dihydropyridin-3-yl)methyl)-3-(ethyl (tetrahydro-2H-pyran-4-yl)amino)-5-(5-isoindolin-2-yl)-2-methylbenzamide]",IC50,Mutant EZH2 (Y641F),0.78 nM
same,IC50,Mutant EZH2 (Y641N),0.1 nM
same,IC50,Karpas 422 cells; [3],2.15 nM
same,IC50,Mutant EZH2 (A677G),0.24 nM
same,IC50,WSU-DLCL2 cells; [4],2.46 nM
same,bioavailability,[2],34.5%
same,AUC,[2]; intravenous dosing 4 mg/kg,893 ng·h/mL
same,half-life,[2]; intravenous dosing 4 mg/kg,1.42 h
same,AUC,[2]; oral dosing 20 mg/kg,1540 ng·h/mL
same,Cmax,[2]; oral dosing 20 mg/kg,500 ng/mL
same,IC50,Pfeiffer cells; [6],0.93 nM
CCN(c1cc(-c2cc3c(cc2F)C(N2CCOCC2)CC3)c(F)c(C(=O)NCc2c(C)cc(C)[nH]c2=O)c1C)C1CCOCC1 (stereo not drawn) [Compound 28],IC50,Mutant EZH2 (Y641N),0.3 nM
same,IC50,Karpas 422 cells; [3],2.7 nM
same,IC50,Mutant EZH2 (A677G),0.5 nM
same,IC50,WSU-DLCL2 cells; [4],3.47 nM
same,IC50,wild-type EZH2,0.91 nM
same,IC50,Pfeiffer cells; [6],1.53 nM
CCN(c1cc(N2Cc3ccc(NC4CCOCC4)cc3C2)cc(C(=O)NCc2c(C)cc(C)[nH]c2=O)c1C)C1CCOCC1 [Compound 23],IC50,Mutant EZH2 (Y641N),0.5 nM
same,IC50,Karpas 422 cells; [3],4.09 nM
same,IC50,Mutant EZH2 (A677G),0.66 nM
same,IC50,WSU-DLCL2 cells; [4],6.48 nM
same,IC50,wild-type EZH2,0.89 nM
same,IC50,Pfeiffer cells; [6],4.36 nM
